Tests used:
[1] = test system: normal male white rabbits; assay: Pharmacological Test 1: change in tear meniscus area after ocular instillation (3% diquafosol sodium, 0.1% sodium hyaluronate); format: in vivo, rabbit; conditions: 50 μL instilled once, FIG. 1
Procedure: The change in the tear fluid volume can be evaluated by measuring the value of a tear meniscus area stained with a fluorescein solution (Exp. Eye. Res., 78(3), 399-407 (2004)). Then, the time course of a change in the tear meniscus area value after the sequential administration of diquafosol sodium, which is a P2Y2 receptor agonist, and sodium hyaluronate to eyes was evaluated in accordance with the method of Murakami et al. (Ophthalmic Res., 34, 371-374 (2002)), using normal male white rabbits. […]
A 0.1% fluorescein solution (3 μL) was administered onto a tear meniscus of the lower eyelid of each of normal male white rabbits (40 eyes of 20 rabbits in total), and a photograph of the tear meniscus that was stained with fluorescein accumulated in the eyelid was taken. The area of the stained tear meniscus part in the photograph was calculated using image analysis software, and the resultant value was employed as a baseline. […]
The change in the tear meniscus area before and after the administration of each of the drugs was calculated as “Δ tear meniscus area value”. […]

[2] = clinical tests; Cornea 23(8), 784-792 (2004); cited from earlier work
[3] = test system: normal male white rabbits; assay: Pharmacological Test 3: change in tear meniscus area (3% diquafosol sodium, 0.002% sodium hyaluronate); format: in vivo, rabbit; conditions: 35 minutes after administration, 50 μL, combination: hyaluronate 5 min after diquafosol
Procedure: For the purpose of examining as to whether or not an increase in tear meniscus area values is observed when a P2Y2 receptor agonist at a therapeutically effective concentration is combined with hyaluronic acid or a salt thereof at a concentration which is employed as an additive, the time course of a change in the tear meniscus area value after the sequential ocular instillation of the 3% diquafosol sodium and the 0.002% sodium hyaluronate was evaluated in the same manner as in Pharmacological test 1.
A 3% diquafosol sodium ophthalmic solution was prepared in the same manner as in the above-mentioned Pharmacological test 1. A 0.002% sodium hyaluronate ophthalmic solution was prepared by diluting “Hyalein® ophthalmic solution 0.3%” manufactured and sold by Santen Pharmaceutical Co., Ltd. with physiological saline.
With respect to normal male white rabbits (24 eyes of 12 rabbits in total), a photograph of a tear meniscus before the administration of a drug was taken in the same manner as in pharmacological test 1. […]
(§1) The change in the tear meniscus area before and after the administration of each of the drugs was calculated as a “Δ tear meniscus area value”.

[4] = test system: rat model from which an exorbital lacrimal gland is excised, additionally applied airflow (corneal epithelial disorder); assay: Pharmacological Test 2: corneal fluorescein staining score in rat dry eye model (exorbital lacrimal gland excised plus airflow); format: in vivo; conditions: 5 μL into both eyes 6 times per day for 6 weeks; 3% diquafosol sodium, 0.1% sodium hyaluronate; compared with non-administered group; FIG. 2
Source text: A rat model from which an exorbital lacrimal gland is excised therefrom has been generally used as a model for evaluating therapeutic effects on corneal epithelial disorders induced by dry eye, and has also been used as a model for evaluating therapeutic effects of P2Y2 receptor agonists (Invest. Ophthalmol. Vis. Sci., 42(1), 96-100 (2001)). Using a dry eye model which is additionally applied airflow to the rat model, it was examined whether or not an improvement effect on corneal epithelial disorders could be achieved by the administration of a P2Y2 receptor agonist at a therapeutically effective concentration and hyaluronic acid or a salt thereof at a therapeutically effective concentration in combination. […]
Six weeks after the initiation of the instillation into eyes, an affected part of the cornea was stained with fluorescein, and the occurrence of the corneal epithelial disorder was determined in accordance with the method by Murakami et al. (Journal of the Eye (Atarashii Ganka), 21(1), 87-90 (2004)). That is, with respect to each of an upper part, an intermediate part and a lower part of the cornea, scores of the degree of staining with fluorescein were determined in accordance with the criteria mentioned below, and the average value of the sum total of the scores was calculated. […]

[5] = test system: normal male white rabbits; assay: Pharmacological Test 4: change in tear meniscus area (3% diquafosol sodium, 0.3% sodium hyaluronate); format: in vivo, rabbit; conditions: after 35 minutes, 50 μL, combination: hyaluronate 5 min after diquafosol
Procedure: The time course of a change in tear meniscus area values after the sequential instillation of 3% diquafosol sodium and 0.3% sodium hyaluronate into eyes was evaluated in the same manner as in Pharmacological test 1.
A 3% diquafosol sodium ophthalmic solution was prepared in the same manner as in the above-mentioned Pharmacological test 1. “Hyalein® ophthalmic solution 0.3%” manufactured and sold by Santen Pharmaceutical Co., Ltd. was used as a 0.3% sodium hyaluronate ophthalmic solution.
With respect to each of normal male white rabbits (18 eyes of 9 rabbits in total), a photograph of a tear meniscus was taken before the administration of each of the drug in the same manner as in Pharmacological test 1. […]
as §1

[6] = test system: rabbits; conditions: Current Eye Research 21(4), 782-787 (2000); cited from earlier work

Row | SMILES | Δ tear meniscus area value ([1]; 10 minutes after administration (of the first agent)) | Δ tear meniscus area value ([1]; 35 minutes after administration (of the first agent)) | keratoconjunctival epithelial disorders [2] | secretion of tear [2] | Δ tear meniscus area value [3] | fluorescein staining scores of the cornea [4] | Δ tear meniscus area value [5] | secretion of tear [6]
1 | O=c1ccn([C@@H]2O[C@H](COP(=O)(O)OP(=O)(O)OP(=O)(O)OP(=O)(O)OC[C@H]3O[C@@H](n4ccc(=O)[nH]c4=O)C(O)[C@H]3O)[C@H](O)C2O)c(=O)[nH]1 (stereo partly drawn) [Diquafosol, P^1,P^4-bis(5′-uridyl)tetraphosphate] | increase in the tear meniscus area value was observed | increase in the tear meniscus area value was observed | ameliorated keratoconjunctival epithelial disorders | promoted the secretion of tear | 1 .127 mm^2 | the tendency of improvement in fluorescein staining scores was observed, the improvement that can be considered as being statistically significant was not observed | 1.434 mm^2 | 
2 | Nc1ncnc2c1ncn2[C@@H]1O[C@H](COP(=O)(O)OP(=O)(O)OP(=O)(O)O)[C@@H](O)[C@H]1O [ATP, Adenosine 5′-triphosphate] |  |  |  |  |  |  |  | can promote the secretion of tear in rabbits
3 | O=c1ccn([C@@H]2O[C@H](COP(=O)(O)OP(=O)(O)OP(=O)(O)O)[C@@H](O)[C@H]2O)c(=O)[nH]1 [UTP, Uridine 5′-triphosphate] |  |  |  |  |  |  |  | can promote the secretion of tear in rabbits
